Results as given in the supplement of paper PMC10307832.

Experiments:
Test in all cases: relative viability (nuclei count vs DMSO), 5 days (fraction); higher = more cells survive
[1] = compound: Cc1nc(C(=O)NCC(=O)O)c(O)c2ccc(Oc3ccccc3)cc12 [FG-4592] + Nc1nc2[nH]cc(CCc3ccc(C(=O)N[C@@H](CCC(=O)O)C(=O)O)cc3)c2c(=O)[nH]1 [Pemetrexed] (partner 0.2 µM)
How it was run: (§1)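 Lung cancer cell lines in 1536-well plates were dosed by pin tool the day after seeding, either with one drug alone or with a fixed anchor-drug dose plus five library-drug doses (not always all listed) in √10 steps. After 5 days, cells were fixed and their nuclei stained in one step (final 0.05% Triton X-100, 1% formaldehyde, 1 ug/ml Hoechst), then counted on 4× images. Relative viability is the nuclei count in treated wells divided by that in vehicle wells. Values are medians of duplicate plates.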

[2] = compound: CC1=CC(=C(N1C2=CC=C(C=C2)Cl)C)C(=O)CN3CCCCC3 [IU1-47] + Cc1nc(Nc2ncc(C(=O)Nc3c(C)cccc3Cl)s2)cc(N2CCN(CCO)CC2)n1 [Dasatinib] (partner 0.075 µM)
How it was run: as §1

[3] = compound: Cc1nc(C(=O)NCC(=O)O)c(O)c2ccc(Oc3ccccc3)cc12 [FG-4592] + Cc1cc(Nc2cc(N3CCN(C)CC3)nc(Sc3ccc(NC(=O)C4CC4)cc3)n2)n[nH]1 [Tozasertib] (partner 0.1 µM)
How it was run: as §1

[4] = compound: Cc1nc(C(=O)NCC(=O)O)c(O)c2ccc(Oc3ccccc3)cc12 [FG-4592] + CC(C)C[C@H](NC(=O)[C@H](Cc1ccccc1)NC(=O)c1cnccn1)B(O)O [Bortezomib] (partner 0.002 µM)
How it was run: as §1

Row | Cell Line | relative viability ([1]; first compound 0.08 µM) | relative viability ([1]; first compound 0.253 µM) | relative viability ([1]; first compound 0.8 µM) | relative viability ([1]; first compound 2.53 µM) | relative viability ([1]; first compound 8 µM) | relative viability ([2]; first compound 0.08 µM) | relative viability ([2]; first compound 0.253 µM) | relative viability ([2]; first compound 0.8 µM) | relative viability ([2]; first compound 2.53 µM) | relative viability ([2]; first compound 8 µM) | relative viability ([3]; first compound 0.08 µM) | relative viability ([3]; first compound 0.253 µM) | relative viability ([3]; first compound 0.8 µM) | relative viability ([3]; first compound 2.53 µM) | relative viability ([3]; first compound 8 µM) | relative viability ([4]; first compound 0.08 µM) | relative viability ([4]; first compound 0.253 µM) | relative viability ([4]; first compound 0.8 µM) | relative viability ([4]; first compound 2.53 µM) | relative viability ([4]; first compound 8 µM)
1 | HCC-366 | 0.182 | 0.148 | 0.242 | 0.181 | 0.258 | 0.679 | 0.694 | 0.621 | 0.689 | 0.584 | 0.226 | 0.0945 | 0.123 | 0.0834 | 0.0885 | 0.9 | 1.01 | 1.11 | 1.12 | 0.99
2 | HCC-827 | 0.232 | 0.255 | 0.235 | 0.26 | 0.255 | 0.345 | 0.366 | 0.301 | 0.288 | 0.387 | 0.385 | 0.372 | 0.369 | 0.457 | 0.406 | 1.04 | 0.947 | 1.23 | 0.983 | 0.939
3 | HOP-62 | 0.287 | 0.317 | 0.35 | 0.304 | 0.324 | 0.673 | 0.652 | 0.709 | 0.531 | 0.564 | 0.406 | 0.393 | 0.381 | 0.367 | 0.41 | 0.602 | 0.816 | 0.628 | 0.754 | 0.985
4 | LC-2-ad | 0.29 | 0.29 | 0.269 | 0.26 | 0.288 | 0.466 | 0.524 | 0.523 | 0.491 | 0.42 | 0.545 | 0.433 |  | 0.421 | 0.465 | 0.98 | 1.02 | 0.973 | 1.05 | 0.878
5 | LCLC-97TM1 | 0.189 | 0.152 |  | 0.145 | 0.171 | 0.98 | 0.971 | 1.03 | 0.841 | 0.776 | 0.173 | 0.214 | 0.23 | 0.244 | 0.18 | 0.77 | 0.522 | 0.884 | 0.71 | 0.301
6 | LCLC-103H | 0.435 | 0.456 | 0.51 | 0.478 | 0.457 | 0.49 | 0.471 | 0.491 | 0.465 | 0.345 | 0.42 | 0.529 | 0.572 | 0.557 | 0.411 | 1.04 | 1.01 | 1.02 | 1.09 | 1.15
7 | LOU-NH91 | 0.465 | 0.336 | 0.468 | 0.405 | 0.407 | 0.597 | 0.581 | 0.605 | 0.608 | 0.534 | 0.709 | 0.669 | 0.696 | 0.634 | 0.717 | 0.509 | 0.49 | 0.48 | 0.455 | 0.568
8 | LU99A | 0.184 | 0.199 |  | 0.182 | 0.199 | 0.756 | 0.499 | 0.457 | 0.659 | 0.462 | 0.289 | 0.293 | 0.243 | 0.334 | 0.297 | 1.08 | 1.03 | 0.798 | 1.04 | 1.01
9 | LXF-289 | 0.853 | 0.906 | 1.02 | 0.883 | 0.948 | 0.219 | 0.24 | 0.179 | 0.223 | 0.209 | 0.186 | 0.16 | 0.214 | 0.177 | 0.205 | 1.02 | 0.886 | 1.05 | 0.97 | 0.973
10 | NCI-H23 | 0.567 | 0.562 | 0.644 | 0.534 | 0.793 | 0.925 | 0.625 | 0.9 | 0.671 | 0.743 | 0.412 | 0.4 | 0.418 | 0.346 | 0.431 | 0.922 | 0.977 | 0.962 | 0.834 | 0.826
11 | NCI-H322M |  | 0.614 | 0.613 | 0.546 | 0.63 | 0.251 | 0.251 | 0.257 | 0.265 | 0.238 | 0.469 | 0.46 | 0.442 | 0.518 | 0.396 | 1.37 | 1.18 | 1.17 | 1.25 | 1.3
12 | NCI-H441 | 0.267 | 0.343 | 0.272 | 0.296 | 0.248 | 0.717 | 0.655 | 0.679 | 0.471 | 0.576 | 0.679 | 0.521 | 0.712 | 0.619 | 0.688 | 0.272 | 0.647 | 0.356 | 0.44 | 0.367
13 | NCI-H460 | 0.0673 | 0.0639 | 0.058 | 0.0799 | 0.0618 | 0.68 | 0.508 | 0.654 | 0.538 | 0.501 | 0.381 | 0.419 | 0.42 | 0.592 | 0.487 | 1.13 | 1.04 | 1.22 | 1.05 | 1.34
14 | NCI-H520 | 0.62 | 0.766 | 0.774 | 0.8 | 0.698 | 0.197 | 0.172 | 0.203 | 0.217 | 0.166 |  | 0.479 |  | 0.479 | 0.391 | 0.53 | 0.612 | 0.496 | 0.459 | 0.31
15 | NCI-H596 | 0.455 | 0.521 |  | 0.538 | 0.457 | 0.574 | 0.617 | 0.606 | 0.595 | 0.554 | 0.975 | 0.916 | 0.867 | 0.893 | 0.682 | 0.919 | 0.808 |  | 0.994 | 0.983
16 | NCI-H647 | 0.165 | 0.14 | 0.211 | 0.161 | 0.15 | 0.171 | 0.179 |  | 0.155 | 0.177 | 0.365 | 0.302 | 0.311 | 0.264 | 0.166 | 0.977 | 0.846 | 0.844 | 0.912 | 0.958
17 | NCI-H650 | 0.978 | 0.871 | 0.848 | 0.812 | 0.726 | 0.457 | 0.439 | 0.476 | 0.427 | 0.445 | 0.73 | 0.703 | 0.746 | 0.691 | 0.697 | 0.903 | 0.771 | 0.525 | 0.66 | 0.807
18 | NCI-H661 | 0.904 | 0.903 | 0.944 | 0.894 | 1.02 | 0.884 | 0.879 | 0.83 | 0.77 | 0.695 | 0.365 | 0.371 | 0.347 | 0.359 | 0.343 | 0.637 | 0.858 | 0.723 | 0.682 | 0.638
19 | NCI-H838 | 0.257 | 0.279 | 0.227 | 0.244 | 0.253 | 0.31 | 0.31 | 0.32 | 0.3 | 0.281 | 0.296 | 0.246 | 0.279 | 0.242 | 0.26 | 0.893 | 0.923 | 0.697 | 0.663 | 0.747
20 | NCI-H1355 | 1.07 | 0.942 |  | 1.03 | 1.05 | 0.655 | 0.798 | 0.706 |  | 0.667 | 0.525 | 0.551 | 0.55 | 0.573 | 0.521 | 1.2 | 1.15 |  | 1.1 | 1.25
21 | NCI-H1437 | 0.32 | 0.31 | 0.349 | 0.32 | 0.274 | 0.369 | 0.348 | 0.384 | 0.35 | 0.365 | 0.397 | 0.384 | 0.458 | 0.375 | 0.33 | 0.537 | 0.581 | 0.63 | 0.458 | 0.378
22 | NCI-H1650 | 0.388 | 0.346 | 0.409 | 0.362 | 0.344 | 0.269 | 0.311 | 0.283 | 0.292 | 0.27 | 0.409 | 0.277 | 0.427 | 0.456 | 0.406 | 0.207 | 0.238 | 0.23 | 0.205 | 0.186
23 | NCI-H1651 | 0.591 | 0.57 | 0.583 | 0.588 | 0.508 | 0.325 | 0.412 | 0.454 | 0.414 | 0.39 | 0.773 | 0.653 | 0.742 | 0.629 | 0.569 | 0.834 | 0.826 | 1.02 | 0.893 | 0.856
24 | NCI-H1666 | 0.771 | 0.836 | 0.932 | 0.834 | 0.722 | 0.79 | 0.806 | 0.761 | 0.793 | 0.676 | 0.651 | 0.592 | 0.594 | 0.657 | 0.56 | 0.839 | 0.843 | 0.705 | 0.701 | 0.537
25 | NCI-H1734 | 0.407 | 0.408 | 0.419 | 0.422 | 0.397 | 0.493 | 0.531 | 0.461 |  | 0.406 | 0.284 | 0.267 | 0.256 | 0.252 | 0.217 | 0.743 | 0.956 | 0.861 | 0.838 | 0.951
26 | NCI-H1755 | 0.417 | 0.483 | 0.46 | 0.4 | 0.453 | 0.455 | 0.528 | 0.426 | 0.409 | 0.36 | 0.56 | 0.51 | 0.568 | 0.678 | 0.655 | 0.918 | 1.01 | 0.907 | 1.02 | 0.998
27 | NCI-H1915 | 0.469 | 0.44 | 0.542 | 0.475 | 0.477 | 0.318 | 0.3 | 0.334 |  | 0.306 | 0.405 | 0.439 | 0.497 | 0.444 | 0.369 | 0.933 | 0.922 | 0.95 | 0.884 | 1.01
